The text below walks through data of article PMC10390775, “CETP inhibitor evacetrapib enters mouse brain tissue” (Frontiers in Pharmacology, 2023).

The conditions of data set [1]: ref Krishna et al., 2017; cited from earlier work.
The nature of data set [2]: Dalcetrapib brain distribution in rats after i.v. dosing, compared with evacetrapib in mice. The data set is classed as in vivo. As to conditions: rats 10 mg/kg BW dalcetrapib i.v. vs mice 40 mg/kg BW evacetrapib, ref Takubo et al., 2014.
Details of data set [3]: method as in Takubo et al., 2014. As to conditions: rats; ref Takubo et al., 2014; cited from earlier work.

Some results are limits rather than exact numbers.

Turning to `COc1cc(F)c(C(C)C)cc1-c1ccc(C(F)(F)F)cc1CN1C(=O)O[C@H](c2cc(C(F)(F)F)cc(C(F)(F)F)c2)[C@@H]1C` [anacetrapib], the “Accumulation in adipose tissues” value in data set [1] is on record as “accumulate in adipose tissues”.
`CCC(CC)CC1(C(=O)Nc2ccccc2SC(=O)C(C)C)CCCCC1` [dalcetrapib]: the “Dalcetrapib brain concentration relative to evacetrapib concentration” value is reported as “twofold lower” in data set [2] (0.5 h after injection) and over 20 fold in data set [2] (24 h after injection). For the same compound, the “Crossing of the blood–brain barrier” value in data set [3] is given as “capacity to cross the blood–brain barrier of rats”.
